Data: patent US9242984B2, “Pyrazolyl derivatives as Syk inhibitors” (Merck Sharp & Dohme Corp., priority 2012, dated 2016)
Where two headings read alike, the source gives them in different places.

Biological target: T1, recombinant human Syk (GST-hSyk fusion protein) (Homo sapiens, UniProt P43405)
T1 construct: purchased Carna Biosciences 08-176
Assay: Homogeneous Time-Resolved Fluorescence (HTRF) assay for the recombinant human Syk enzyme
Type: biochemical
Details: 10-dose titration, 25 μM ATP
Procedure, shortened: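 GST-hSyk (5 pM) preincubated 10 min with compound (0.1% DMSO) in 15 mM Tris-HCl pH 7.5, 2 mM DTT; reaction started with 250 nM biotinylated peptide, 5 mM Mg, 25 μM ATP, 45 min, room temperature. EDTA quench, Eu-anti-phosphotyrosine/SA-APC HTRF read after 30 min; IC50 from 10-dose titration (10 μM–0.508 nM), four-parameter fit.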

[1] = IC50 class, read-out: rhSYK Activity

IC50 [1] | IC50 (read-out: rhSYK IC50) | SMILES
≤ 100 nM | – | Cc1cc(Nc2nccc(C(F)F)n2)cc(-c2cnn(CC3OC(=O)NC3CO)c2)c1 (single isomer, unassigned) [Example 33.4, 5-{[4-(3-{[4-(difluoromethyl)pyrimidin-2-yl]amino}-5-methylphenyl)-1H-pyrazol-1-yl]methyl}-4-(hydroxymethyl)-1,3-oxazolidin-2-one]
≤ 100 nM | – | Cc1cc(Nc2nccc(C(F)F)n2)cc(-c2cnn(C(C[C@H](C)O)[C@@H](C)O)c2)c1 (stereo in doubt) [Example 2.49, 3-[4-(3-{[4-(difluoromethyl)pyrimidin-2-yl]amino}-5-methylphenyl)-1H-pyrazol-1-yl]hexane-2,5-diol]
≤ 100 nM | – | Cc1cc(Nc2nccc(C(F)F)n2)cc(-c2cnn(C(C[C@@H](C)O)[C@H](C)O)c2)c1 (stereo in doubt) [Example 2.50, 3-[4-(3-{[4-(difluoromethyl)pyrimidin-2-yl]amino}-5-methylphenyl)-1H-pyrazol-1-yl]hexane-2,5-diol]
≤ 100 nM | – | Cc1cc(Nc2nccc(C(F)F)n2)cc(-c2cnn(C(C[C@H](C)O)[C@H](C)O)c2)c1 (stereo in doubt) [Example 2.51, 3-[4-(3-{[4-(difluoromethyl)pyrimidin-2-yl]amino}-5-methylphenyl)-1H-pyrazol-1-yl]hexane-2,5-diol]
≤ 100 nM | – | Cc1cc(Nc2nccc(C(F)F)n2)cc(-c2cnn(C(C[C@@H](C)O)[C@@H](C)O)c2)c1 (stereo in doubt) [Example 2.52, 3-[4-(3-{[4-(difluoromethyl)pyrimidin-2-yl]amino}-5-methylphenyl)-1H-pyrazol-1-yl]hexane-2,5-diol]
≤ 100 nM | – | Cc1cc(Nc2nccc(C(F)F)n2)cc(-c2cnn(C(C[C@H](C)O)[C@@H](C)O)c2)c1 (stereo in doubt) [Example 2.53, 3-[4-(3-{[4-(difluoromethyl)pyrimidin-2-yl]amino}-5-methylphenyl)-1H-pyrazol-1-yl]hexane-2,5-diol]
≤ 100 nM | – | Cc1cc(Nc2nccc(C(F)F)n2)cc(-c2cnn(C(C[C@@H](C)O)[C@H](C)O)c2)c1 (stereo in doubt) [Example 2.54, 3-[4-(3-{[4-(difluoromethyl)pyrimidin-2-yl]amino}-5-methylphenyl)-1H-pyrazol-1-yl]hexane-2,5-diol]
≤ 100 nM | – | Cc1cc(Nc2nccc(C(F)F)n2)cc(-c2cnn(C(C[C@H](C)O)[C@H](C)O)c2)c1 (stereo in doubt) [Example 2.55, 3-[4-(3-{[4-(difluoromethyl)pyrimidin-2-yl]amino}-5-methylphenyl)-1H-pyrazol-1-yl]hexane-2,5-diol]
≤ 100 nM | – | Cc1cc(Nc2nccc(C(F)F)n2)cc(-c2cnn(C(C[C@@H](C)O)[C@@H](C)O)c2)c1 (stereo in doubt) [Example 2.56, 3-[4-(3-{[4-(difluoromethyl)pyrimidin-2-yl]amino}-5-methylphenyl)-1H-pyrazol-1-yl]hexane-2,5-diol]
≤ 100 nM | – | Cc1cc(Nc2nccc(C(F)(F)F)n2)cc(-c2cnn(CCS(N)(=O)=O)c2)c1 [9.2]
100 to 1000 nM | – | Cc1cc(Nc2nccc(C(F)(F)F)n2)cc(-n2ccc(Cl)n2)c1 [19.9]
≤ 100 nM | 65.8 nM | Cc1cc(Nc2nccc(C(F)(F)F)n2)cc(-c2cnn3ccccc23)c1 [Example 1.1, N-(3-methyl-5-(pyrazolo[1,5-a]pyridin-3-yl)phenyl)-4-(trifluoromethyl)pyrimidin-2-amine]
≤ 100 nM | – | Cc1cc(Nc2nccc(C(F)(F)F)n2)cc(-c2cnn(CCC(=O)O)c2)c1 [Example 1.2, 3-[4-(3-methyl-5-{[4-(trifluoromethyl)-pyrirnidin-2-yl]amino}-phenyl)-1H-pyrazol-1-yl]-propanoic acid]
≤ 100 nM | – | Cc1cc(Nc2nccc(C(F)(F)F)n2)cc(-c2cnn(C)c2)c1 [Example 1.3, N-[3-methyl-5-(1-methyl-1H-pyrazol-4-yl)phenyl]-4-(trifluoromethyl)-pyrimidin-2-amine]
1000 to 10000 nM | – | Cc1cc(Nc2nccc(C(F)(F)F)n2)cc(-c2cnn(C3CCC(C(=O)OC(C)(C)C)CC3)c2)c1 (centres unmarked) [Example 1.4, tert-butyl 4-[4-(3-methyl-5-{[4-(trifluoromethyl)-pyrimidin-2-yl]amino}-phenyl)-1H-pyrazol-1-yl]-cyclohexanecarboxylate]
≤ 100 nM | – | Cc1cc(Nc2nccc(C(F)(F)F)n2)cc(-c2cnn(C3C=CCCC3)c2)c1 (centres unmarked) [Example 1.5, N-[3-(1-cyclohex-2-en-1-yl-1H-pyrazol-4-yl)-5-methylphenyl]-4-(trifluoromethyl)-pyrimidin-2-amine]
≤ 100 nM | – | Cc1cc(Nc2nccc(C(F)(F)F)n2)cc(-c2cn[nH]c2)c1 [Example 1.6, N-[3-methyl-5-(1H-pyrazol-4-yl)phenyl]-4-(trifluoromethyl)-pyrimidin-2-amine]
≤ 100 nM | – | Cc1cc(Nc2nccc(C(F)(F)F)n2)cc(-c2cc[nH]n2)c1 [Example 1.7, N-[3-methyl-5-(1H-pyrazol-3-yl)phenyl]-4-(trifluoromethyl)pyrimidin-2-amine]
100 to 1000 nM | – | Cc1cc(Nc2nccc(C(F)(F)F)n2)cc(-c2ccnn2C(C)C)c1 [Example 1.8, N-{3-methyl-5-[1-(1-methylethyl)-1H-pyrazol-5-yl]phenyl}-4-(trifluoromethyl)pyrimidin-2-amine]

IC50 [1] | IC50 (read-out: rhSYK IC50) | SMILES
100 to 1000 nM | – | Cc1cc(Nc2nccc(C(F)(F)F)n2)cc(-c2ccnn2C)c1 [Example 1.9, N-[3-methyl-5-(1-methyl-1H-pyrazol-5-yl)phenyl]-4-(trifluoromethyl)pyrimidin-2-amine]
1000 to 10000 nM | – | Cc1cc(Nc2nccc(C(F)(F)F)n2)cc(-c2cc(C(F)(F)F)nn2C)c1 [Example 1.10, N-{3-methyl-5-[1-methyl-3-(trifluoromethyl)-1H-pyrazol-5-yl]phenyl}-4-(trifluoromethyl)pyrimidin-2-amine]
≤ 100 nM | – | Cc1cc(Nc2cc(C(F)(F)F)ccn2)nc(-c2cnn(C(=O)OC(C)(C)C)c2)c1 [Example 1.11, tert-butyl 4-(4-methyl-6-{[4-(trifluoromethyl)-pyridin-2-yl]amino}-pyridin-2-yl)-1H-pyrazole-1-carboxylate]
≤ 100 nM | – | Cc1cc(Nc2cc(C(F)(F)F)ccn2)nc(-c2cn[nH]c2)c1 [Example 1.12, 4-methyl-6-(1H-pyrazol-4-yl)-N-[4-(trifluoromethyl)pyridin-2-yl]pyridin-2-amine]
≤ 100 nM | – | Cc1cc(Nc2cc(C(F)(F)F)ccn2)nc(-c2cnn(C)c2)c1 [Example 1.13, 4-methyl-6-(1-methyl-1H-pyrazol-4-yl)-N-[4-(trifluoromethyl)pyridin-2-yl]pyridin-2-amine]
≤ 100 nM | – | Cc1cc(Nc2cc(C(F)(F)F)ccn2)nc(-c2cnn(CCC(C)C)c2)c1 [Example 1.14, 4-methyl-6-[1-(3-methylbutyl)-1H-pyrazol-4-yl]-N-[4-(trifluoromethyl)pyridin-2-yl]pyridin-2-amine]
≤ 100 nM | – | Cc1cc(Nc2cc(C(F)(F)F)ccn2)nc(-c2cnn3c2CCC3)c1 [Example 1.15, 6-(5,6-dihydro-4H-pyrrolo[1,2-b]pyrazol-3-yl)-4-methyl-N-[4-(trifluoromethyl)pyridin-2-yl]pyridin-2-amine]
≤ 100 nM | – | CCOC(=O)CCn1cc(-c2cc(C)cc(Nc3cc(C(F)(F)F)ccn3)n2)cn1 [Example 1.16, ethyl 3-[4-(4-methyl-6-{[4-(trifluoromethyl)pyridin-2-yl]amino}pyridin-2-yl)-1H-pyrazol-1-yl]propanoate]
≤ 100 nM | – | CCOC(=O)CCn1cc(-c2cc(C)cc(Nc3cc(C4CC4)ccn3)n2)cn1 [Example 1.17, ethyl 3-(4-{6-[(4-cyclopropylpyridin-2-yl)amino]-4-methylpyridin-2-yl}-1H-pyrazol-1-yl)propanoate]
100 to 1000 nM | – | Cc1ccnc(Nc2cccc(-c3cnn(CCC(=O)O)c3)n2)c1 [Example 1.18, 3-(4-{6-[(4-methylpyridin-2-yl)amino]pyridin-2-yl}-1H-pyrazol-1-yl)propanoic acid]
≤ 100 nM | – | O=C(O)CCn1cc(-c2cccc(Nc3cc(C(F)(F)F)ccn3)n2)cn1 [Example 1.19, 3-[4-(6-{[4-(trifluoromethyl)pyridin-2-yl]amino}pyridin-2-yl)-1H-pyrazol-1-yl]propanoic acid]
100 to 1000 nM | – | Cc1ccnc(Nc2cc(C)cc(-c3cnn(CCC(=O)O)c3)n2)c1 [Example 1.20, 3-(4-{4-methyl-6-[(4-methylpyridin-2-yl)amino]pyridin-2-yl}-1H-pyrazol-1-yl)propanoic acid]
≤ 100 nM | – | Cc1cc(Nc2cc(C(F)(F)F)ccn2)nc(-c2cnn(CCC(=O)O)c2)c1 [Example 1.21, 3-[4-(4-methyl-6-{[4-(trifluoromethyl)pyridin-2-yl]amino]pyridin-2-yl)-1H-pyrazol-1-yl)propanoic acid]
≤ 100 nM | – | Cc1cc(Nc2cc(C3CC3)ccn2)nc(-c2cnn(CCC(=O)O)c2)c1 [Example 1.22, 3-(4-{6-[(4-cyclopropylpyridin-2-yl)amino]-4-methylpyridin-2-yl}-1H-pyrazol-1-yl)propanoic acid]
100 to 1000 nM | – | CCOC(=O)CCn1cc(-c2cccc(Nc3cc(C)ccn3)n2)cn1 [Example 1.23]
100 to 1000 nM | – | CCOC(=O)CCn1cc(-c2cccc(Nc3cc(C(F)(F)F)ccn3)n2)cn1 [Example 1.24, ethyl 3-[4-(6-{[4-(trifluoromethyl)pyridin-2-yl]amino}pyridin-2-yl)-1H-pyrazol-1-yl]propanoate]
100 to 1000 nM | – | CCOC(=O)CCn1cc(-c2cc(C)cc(Nc3cc(C)c(Cl)cn3)n2)cn1 [Example 1.25, ethyl 3-(4-{6-[(5-chloro-4-methylpyridin-2-yl)amino]-4-methylpyridin-2-yl}-1H-pyrazol-1-yl)propanoate]
100 to 1000 nM | – | CCOC(=O)CCn1cc(-c2cc(C)cc(Nc3cc(C)ccn3)n2)cn1 [Example 1.26, ethyl 3-(4-{4-methyl-6-[(4-methylpyridin-2-yl)amino]pyridin-2-yl}-1H-pyrazol-1-yl)propanoate]
